Assay results reported in PMC12163635, “Synthetic Retinoids for the Modulation of Genomic and Nongenomic Processes in Neurodegenerative Diseases” (ACS Omega, 2025).

Legend:
Test in all cases: Fluorescence competition binding assay (displacement of DC271)
RARγ = biological target: T1, RARγ (Homo sapiens, UniProt P13631); conditions: for Kd / Binding KD (± SD) RARγ: 100 nM RAR and DC271 on plate; for Kd: read-out: Binding KD (± SD) RARγ; for ΔGEXP RARγ: experimental binding free energy from K D, ΔGexp=−RT ln K, 298.1 K
T1 construct: His6-3C-SUMO (cleaved yes); made in house; host or cells: E. coli BL21(DE3), pOPINS3C vector
T1 sequence (P13631 185-419 limits assumed): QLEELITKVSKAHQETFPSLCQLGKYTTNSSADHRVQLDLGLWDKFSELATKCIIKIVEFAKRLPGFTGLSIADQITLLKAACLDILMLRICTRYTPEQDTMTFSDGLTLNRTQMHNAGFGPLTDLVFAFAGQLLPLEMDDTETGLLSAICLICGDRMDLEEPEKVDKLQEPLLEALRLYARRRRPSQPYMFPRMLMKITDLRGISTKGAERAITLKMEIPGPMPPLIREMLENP
Experimental: (§1) Fluorescence competition assays were employed to determine the relative binding affinities of each synthetic retinoid toward the LBD of the RARs. The assay is based on the potential for competitive displacement of the inherently fluorescent retinoid DC271 from the LBP by a test nonfluorescent synthetic retinoid. Changes in the fluorescence were measured following the addition of a serial dilution of the test compound and the results were plotted to generate a binding curve. […] Assays were performed for both RARα and RARγ. […] Nonlinear least-squares regression analyses were performed to calculate binding affinities and reported as binding K D, the equilibrium dissociation constant between the RAR isoform and the test synthetic retinoid.
(§2) RARα/γ proteins were expressed in BL21(DE3) cells (NEB) transformed into pET50b (Novagen) and pOPINS3C vectors, respectively, carrying the gene construct and containing a His6-3C-NusA tag or His6-3C-SUMO tag used for solubility. Transformations were carried out under standard conditions using Quick Transformation Protocol (New England Biolabs). Successful transformants were grown overnight in 2xYT media (Melford) and frozen for storage at −80 °C in 50% glycerol. Expression cultures were inoculated from glycerol stocks into 25 mL of 2xYT media (Melford) with 50 μg/mL kanamycin or 100 μg/mL ampicillin (Sigma-Aldrich) and grown overnight with shaking (37 °C, 150 rpm). The overnight cultures were transferred into 1 L expression flasks (2xYT/ampicillin 100 μg/mL or 2xYT/kanamycin 50 μg/mL) and grown with shaking at 37 °C, 150 rpm. Induction was carried out at an OD600 of 0.6–0.8, with 1 mL of 1 M IPTG (1 mM in culture), before shaking overnight (20 h) at 18 °C. The resulting cultures were spun down into pellets using an Avanti Hi-Speed centrifuge (JLA 8.1000, 4000 rpm, 30 min, 4 °C), before the supernatant was removed and the bacterial pellet were frozen at −80 °C.
(§3) RARα/γ (pET50b or pOPINS3C, BL21(DE3) (NEB)) were resuspended from pellet with 20 mL Wash Buffer (20 mM Tris-HCl, 300 mM NaCl and 20 mM imidazole, pH 8) and the resulting suspension was sonicated on ice (40% power, 2 min, repeated twice with 1 min rest in-between) before centrifuging (Avanti Hi-Speed JA25.50, 20,000 rpm, 1 h, 4 °C). Supernatants were clarified using 0.45 μm syringe filters (Thermo Fisher Scientific). Affinity chromatography and size-exclusion (SEC) chromatography were carried out on AKTA Pure25 (Cytiva). Supernatants were loaded onto the HisTrap HP column (5 mL, Cytiva) and washed using 25 mL of wash Buffer. The column was washed with Wash Buffer until UV trace returned to baseline, before RARα/γ was eluted using a gradient of Elution Buffer (20 mM Tris-HCl, 300 mM NaCl, 500 mM imidazole pH 8). The resulting protein-containing fractions were analyzed by SDS-PAGE (200 V, 30 min) using SurePAGE Bis-Tris 12% precast gels (Genscript). Protein concentrations were estimated using absorbance at 280 nm on a DS-11 spectrophotometer (Denovix) with calculated molecular weights and extinction coefficients (Expasy). RAR proteins were cleaved overnight from 3C-NusA tag or 3C-SUMO-His tag using 1 Unit/100 μg protein of HRV3C protease (Thermo Fisher Scientific) at 4 °C. Solution after digestion was loaded onto a HiLoad 16/600 Superdex 75 prep-grade column (Cytiva) and cleaved RARα/γ was separated from the tag based on molecular weight and eluted from the column using SEC Buffer (20 mM Tris-HCl, 300 mM NaCl and 0.5 mM TCEP, pH 8) into 2 mL fractions. The resulting protein fractions were analyzed by SDS PAGE (200 V, 30 min) using SurePAGE Bis-Tris 12% precast gels (Genscript), before being concentrated to 5 mg/mL using centrifugal concentrators (Sartorius) and frozen at −80 °C in small aliquots for use in binding assays.

RARα [1] = biological target: T2, RARα (Homo sapiens, UniProt P10276); conditions: for Kd / Binding KD (± SD) RARα: 100 nM RAR and DC271 on plate; for Kd: read-out: Binding KD (± SD) RARα; for ΔGEXP RARα: experimental binding free energy from K D, ΔGexp=−RT ln K, 298.1 K
Sequence of RARα (P10276 182-417): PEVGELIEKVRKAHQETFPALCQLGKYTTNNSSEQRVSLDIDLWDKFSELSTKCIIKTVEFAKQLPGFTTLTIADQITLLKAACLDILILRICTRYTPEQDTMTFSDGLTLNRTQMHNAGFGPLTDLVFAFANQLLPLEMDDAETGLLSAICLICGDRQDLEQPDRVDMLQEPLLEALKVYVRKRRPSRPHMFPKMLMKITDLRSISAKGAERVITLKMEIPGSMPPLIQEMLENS
T2 construct: His6-3C-NusA (cleaved yes); made in house; host or cells: E. coli BL21(DE3), pET50b vector
T2 sequence (P10276 183-417 limits assumed): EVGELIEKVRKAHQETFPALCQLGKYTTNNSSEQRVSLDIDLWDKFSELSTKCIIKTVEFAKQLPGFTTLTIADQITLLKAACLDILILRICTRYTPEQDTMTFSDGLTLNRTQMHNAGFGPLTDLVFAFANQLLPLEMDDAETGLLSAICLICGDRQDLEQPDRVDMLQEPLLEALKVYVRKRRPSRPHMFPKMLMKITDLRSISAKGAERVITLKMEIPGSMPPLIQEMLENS
Experimental: as §1, §2, §3

RARα [2] = test system: RARα; parameters: species or system human; conditions: log-log plot of K D for RARα and RARγ
Experimental: as §1, §2, §3

SMILES | Kd (RARγ) | ΔGEXP RARγ (RARγ) | Kd (RARα [1]) | ΔGEXP RARα (RARα [1]) | binding preference RARα versus RARγ (from K D) (RARα [2]) | Binding KD (± SD) RARγ (RARγ) | Binding KD (± SD) RARα (RARα [1])
Cc1sc(-c2ccc(C(=O)O)cc2F)nc1-c1cnc2c(n1)C(C)(C)CCC2(C)C [Compound 43, 3-Fluoro-4-[5-methyl-4-(5,5,8,8-tetramethyl-5,6,7,8-tetrahydroquinoxalin-2-yl)-1,3-thiazol-2-yl]benzoic Acid] | 2710 nM | -7.74 kcal/mol | 2580 nM | -7.64 kcal/mol | close to the plotted line representing equal binding affinity for RARα and RARγ | – | –
CC1(C)CCC(C)(C)c2cc(C#Cc3cnc(C(=O)O)cn3)ccc21 [Compound 25, 5-[2-(5,5,8,8-Tetramethyl-5,6,7,8-tetrahydronaphthalen-2-yl)ethynyl]pyrazine-2-carboxylic Acid] | – | Non-competitive Binding | 927 nM | -8.23 kcal/mol | – | noncompetitive binding | –
CC1(C)CCC(C)(C)c2cc(C#Cc3ccc(C(=O)O)cc3F)ccc21 [Compound 14, 3-Fluoro-4-[2-(5,5,8,8-tetramethyl-5,6,7,8-tetrahydronaphthalen-2-yl)ethynyl]benzoic Acid] | 16 nM | -10.7 kcal/mol | 30.9 nM | -10.3 kcal/mol | bind RARγ stronger than RARα | – | –
Cc1cc2c(cc1C#Cc1cc(F)c(C(=O)O)c(F)c1)C(C)(C)CCC2(C)C [Compound 19, 2,6-Difluoro-4-[2-(3,5,5,8,8-pentamethyl-5,6,7,8-tetrahydronaphthalen-2-yl)ethynyl]benzoic Acid] | 33.7 nM | -10.2 kcal/mol | 5.72 nM | -11.3 kcal/mol | bind RARα preferentially over RARγ | – | –
CC1(C)CCC(C)(C)c2cc(C#Cc3ccc(C(=O)O)cc3Cl)ccc21 [Compound 16, 3-Chloro-4-[2-(5,5,8,8-tetramethyl-5,6,7,8-tetrahydronaphthalen-2-yl)ethynyl]benzoic Acid] | 24.2 nM | -10.4 kcal/mol | 73.7 nM | -9.79 kcal/mol | bind RARγ stronger than RARα | – | –
Cc1sc(-c2ccc(C(=O)O)cc2)nc1-c1cnc2c(n1)C(C)(C)CCC2(C)C [Compound 40, 4-[5-Methyl-4-(5,5,8,8-tetramethyl-5,6,7,8-tetrahydroquinoxalin-2-yl)-1,3-thiazol-2-yl]benzoic Acid] | 655 nM | -8.44 kcal/mol | 559 nM | -8.58 kcal/mol | close to the plotted line representing equal binding affinity for RARα and RARγ | – | –
CC1(C)CCC(C)(C)c2nc(C#Cc3ccc(C(=O)O)cc3)cnc21 [Compound 30, 4-[2-(5,5,8,8-Tetramethyl-5,6,7,8-tetrahydroquinoxalin-2-yl)ethynyl]benzoic Acid] | 217 nM | -9.09 kcal/mol | 155 nM | -9.29 kcal/mol | close to the plotted line representing equal binding affinity for RARα and RARγ | – | –
Cc1cc2c(cc1C#Cc1ncc(C(=O)O)cn1)C(C)(C)CCC2(C)C [Compound 28, 2-[2-(3,5,5,8,8-Pentamethyl-5,6,7,8-tetrahydronaphthalen-2-yl)ethynyl]pyrimidine-5-carboxylic Acid] | 750 nM | -8.36 kcal/mol | 420 nM | -8.72 kcal/mol | bind RARα preferentially over RARγ | – | –
Cc1sc(-c2ccc(C(=O)O)cn2)nc1-c1cnc2c(n1)C(C)(C)CCC2(C)C [Compound 41, 6-[5-Methyl-4-(5,5,8,8-tetramethyl-5,6,7,8-tetrahydroquinoxalin-2-yl)-1,3-thiazol-2-yl]pyridine-3-carboxylic Acid] | – | Non-competitive Binding | – | Non-competitive Binding | – | noncompetitive binding | noncompetitive binding
CC1(C)CCC(C)(C)c2cc(C#Cc3ccc(C(=O)O)cn3)ccc21 [Compound 23, 6-[2-(5,5,8,8-Tetramethyl-5,6,7,8-tetrahydronaphthalen-2-yl)ethynyl]pyridine-3-carboxylic Acid] | 24.3 nM | -10.4 kcal/mol | 15.8 nM | -10.7 kcal/mol | close to the plotted line representing equal binding affinity for RARα and RARγ | – | –
COc1cc2c(cc1C#Cc1ncc(C(=O)O)cn1)C(C)(C)CCC2(C)C [Compound 29, 2-[2-(3-Methoxy-5,5,8,8-tetramethyl-5,6,7,8-tetrahydronaphthalen-2-yl)ethynyl]pyrimidine-5-carboxylic Acid] | – | Non-competitive Binding | – | Non-competitive Binding | – | noncompetitive binding | noncompetitive binding
CC1(C)CCC(C)(C)c2nc(C#Cc3ccc(C(=O)O)cc3F)cnc21 [Compound 31, 3-Fluoro-4-[2-(5,5,8,8-tetramethyl-5,6,7,8-tetrahydroquinoxalin-2-yl)ethynyl]benzoic Acid] | 142 nM | -9.38 kcal/mol | 203 nM | -9.13 kcal/mol | bind RARγ stronger than RARα | – | –
CC1(C)CCC(C)(C)c2cc(C#Cc3cc(F)c(C(=O)O)c(F)c3)ccc21 [Compound 15, 2,6-Difluoro-4-[2-(5,5,8,8-tetramethyl-5,6,7,8-tetrahydronaphthalen-2-yl)ethynyl]benzoic Acid] | 22.7 nM | -10.4 kcal/mol | 0.37 nM | -13.0 kcal/mol | strongly binds both RARα and RARγ | – | –
Cc1sc(-c2ccc(C(=O)O)cc2)nc1-c1ccc2c(c1)C(C)(C)CCC2(C)C [GZ25, reference compound] | 335 nM | -8.84 kcal/mol | 688 nM | -7.92 kcal/mol | – | – | –
